From patent US11230543B2, “Biaryl monobactam compounds and methods of use thereof for the treatment of bacterial infections” (priority 2015, dated 2022) come the findings set out here.

Test [1] deals with Klebsiella pneumoniae expressing KPC-1 (CL6569). Kind of test: Antibiotic activity: growth inhibitory concentration (OD600), Klebsiella pneumoniae CL6569. Format: cell-based. As to conditions: lowest concentration inhibiting 95% of bacterial growth; in the presence of β lactamase inhibitor Relebactam 4 μg/mL; 35±2° C. for 22 hours; tested range 100 μM to 0.098 μM. As to the method:
(§1) Antibiotic Activity: Determination of Growth Inhibitory Concentration
(§2) The concentrations of compounds required to inhibit the growth of various strains of bacteria were determined in an assay that assessed bacterial growth by measuring optical density at 600 nm (OD600). The bacterial strains tested included the clinical strains Escherichia coli expressing NDM-1 (CLB30016), Klebsiella pneumoniae expressing KPC-1 (CL6569), Acinetobacter baumannii expressing TEM-1, AmpC, and Oxa-24/40 (CL6188) and Pseudomonas aeruginosa expressing AmpC (CL5701). All compounds were tested in the presence of a β lactamase inhibitor (BLi, Relebactam) in 384-well microplates. The clinical strains were stored as frozen single use stocks, thawed and diluted into 1.1× cation-adjusted Mueller-Hinton II broth to achieve approximately 2×10^5 CFU/mL. Test compounds were dissolved in DMSO and diluted 1:50 in the assay, resulting in a final concentration range of 100 μM to 0.098 μM. On the day of the assay, 1 μL of test compound was added to the plate followed by 4 μL of 50 μg/mL BLi in MOPS buffer and 45 μL of diluted bacteria. Plates were centrifuged at 1000 rpm for 30 seconds, shaken at approximately 800 rpm for 1 minute, and incubated at 35±2° C. for 22 hours. The concentration of BLi used in the assay was 4 μg/mL. At the end of the incubation, absorbance at 600 nm was determined using a spectrophotometer. Inhibition was quantitated by identifying the lowest concentration of test compound that was required to inhibit 95% of the growth of the bacteria. The results for Examples 1-126 are reported in Table I, expressed as the concentration of compound that inhibited 95% of bacterial growth (Minimum Inhibitory Threshold Concentration; MITC95).

The test system of test [2] is Pseudomonas aeruginosa expressing AmpC (CL5701). Briefly: Antibiotic activity: growth inhibitory concentration (OD600), Pseudomonas aeruginosa CL5701. It counts as cell-based. The following applies: lowest concentration inhibiting 95% of bacterial growth; in the presence of β lactamase inhibitor Relebactam 4 μg/mL; 35±2° C. for 22 hours; tested range 100 μM to 0.098 μM. As for the experimental part:
as §1, §2

Structures can show the parent of a compound that is named as a salt.

Regarding `CC1(C)[C@H](NC(=O)/C(=N\O[C@@H](COc2ccc(-c3ccc(C(=O)NC(CN)CN)nc3)cc2)C(=O)O)c2csc(N)n2)C(=O)N1OS(=O)(=O)O` [Example 81, (S)-2-((((Z)-1-(2-aminothiazol-4-yl)-2-(((S)-2,2-dimethyl-4-oxo-1-(sulfooxy)azetidin-3-yl)amino)-2-oxoethylidene)amino)oxy)-3-(4-(6-((1,3-diaminopropan-2-yl)carbamoyl)pyridin-3-yl)phenoxy)propanoic acid], the “KP_CL6569 MITC95” value in test [1] was 0.1953 µM. Besides, in test [2], the “PA_CL5701 MITC95” value came out at 3.125 µM.
With `CC1(C)[C@H](NC(=O)/C(=N\O[C@@H](COc2ccc(-c3cc(CNCCN)n(CCCN)n3)cc2)C(=O)O)c2csc(N)n2)C(=O)N1OS(=O)(=O)O` [Example 125, (S)-3-(4-(5-(((2-Aminoethyl)amino)methyl)-1-(3-aminopropyl)-1H-pyrazol-3-yl)phenoxy)-2-((((Z)-1-(2-aminothiazol-4-yl)-2-(((S)-2,2-dimethyl-4-oxo-1-(sulfooxy)azetidin-3-yl)amino)-2-oxoethylidene)amino)oxy)propanoic acid], the “KP_CL6569 MITC95” value in test [1] turned out to be 0.39 µM. Moreover, the “PA_CL5701 MITC95” value in test [2] was 3.125 µM.
With `CC1(C)[C@H](NC(=O)/C(=N\O[C@@H](COc2ccc(-c3cnn(CCCN)c3)nc2)C(=O)O)c2csc(N)n2)C(=O)N1OS(=O)(=O)O.O=C(O)C(F)(F)F` [Example 13, 3-(4-(5-((S)-2-((((Z)-1-(2-aminothiazol-4-yl)-2-(((S)-2,2-dimethyl-4-oxo-1-(sulfooxy)azetidin-3-yl)amino)-2-oxo-ethylidene)amino)oxy)-2-carboxyethoxy)pyridin-2-yl)-1H-pyrazol-1-yl)propan-1-aminium 2,2,2-trifluoroacetate], in test [1], the “KP_CL6569 MITC95” value came out at 0.7813 µM. Also, in test [2], the “PA_CL5701 MITC95” value was found to be 12.5 µM.
The corresponding values for `C[n+]1c(-c2ccc(OC[C@H](O/N=C(\C(=O)N[C@@H]3C(=O)N(OS(=O)(=O)O)C3(C)C)c3csc(N)n3)C(=O)O)cc2)ccn1CCCN.O=C([O-])C(F)(F)F` [Example 18, 1-(3-aminopropyl)-3-(4-((S)-2-((((Z)-1-(2-aminothiazol-4-yl)-2-(((S)-2,2-dimethyl-4-oxo-1-(sulfooxy)azetidin-3-yl)amino)-2-oxo-ethylidene)amino)oxy)-2-carboxyethoxy)phenyl)-2-methyl-1H-pyrazol-2-ium 2,2,2-trifluoroacetate] are 0.3906 µM and 6.25 µM.
The corresponding values for `Cn1c(-c2ccc(OC[C@H](O/N=C(\C(=O)N[C@@H]3C(=O)N(OS(=O)(=O)O)C3(C)C)c3csc(N)n3)C(=O)O)cc2)cn(CC(O)CN)c1=N` (single isomer, unassigned) [Example 56] are 0.3906 µM and 3.125 µM.
For `C[n+]1ccc(-c2ccc(OC[C@H](O/N=C(\C(=O)N[C@@H]3C(=O)N(OS(=O)(=O)[O-])C3(C)C)c3csc(N)n3)C(=O)O)cc2)cc1NCCCN` [Example 63, (S)-3-((Z)-2-(((S)-2-(4-(2-((3-aminopropyl)amino)-1-methylpyridin-1-ium-4-yl)phenoxy)-1-carboxyethoxy)imino)-2-(2-aminothiazol-4-yl)acetamido)-2,2-dimethyl-4-oxoazetidin-1-yl sulfate], the “KP_CL6569 MITC95” value in test [1] is 0.3906 µM. Further, in test [2], the “PA_CL5701 MITC95” value stood at 6.25 µM.
Regarding `CCOC(=O)[C@H](COc1ccc(-c2cn(CCCN)c(=N)n2C)cc1)O/N=C(\C(=O)N[C@@H]1C(=O)N(OS(=O)(=O)O)C1(C)C)c1csc(N)n1` [Example 116, Ethyl (S)-3-(4-(1-(3-aminopropyl)-2-imino-3-methyl-2,3-dihydro-1H-imidazol-4-yl)phenoxy)-2-((((Z)-1-(2-aminothiazol-4-yl)-2-(((S)-2,2-dimethyl-4-oxo-1-(sulfooxy)azetidin-3-yl)amino)-2-oxoethylidene)amino)oxy)propanoate], the “KP_CL6569 MITC95” value in test [1] came out at 6.25 µM. For the same compound, the “PA_CL5701 MITC95” value in test [2] is 50 µM.
The corresponding values for `C[n+]1nc(NCCCN)ccc1-c1ccc(OC[C@H](O/N=C(\C(=O)N[C@@H]2C(=O)N(OS(=O)(=O)[O-])C2(C)C)c2csc(N)n2)C(=O)O)cc1` [Example 122, (S)-3-((Z)-2-(((S)-2-(4-(3-((3-aminopropyl)amino)-1-methylpyridazin-1-ium-6-yl)phenoxy)-1-carboxyethoxy)imino)-2-(2-aminothiazol-4-yl)acetamido)-2,2-dimethyl-4-oxoazetidin-1-yl sulfate] are 0.1953 µM and 3.125 µM.
On to `CC1(C)[C@H](NC(=O)/C(=N\O[C@@H](COc2ccc([C@H]3CN=C(NCCN)N3)cc2)C(=O)O)c2csc(N)n2)C(=O)N1OS(=O)(=O)O` [Example 58, (S)-3-(4-((S)-2-((2-aminoethyl)amino)-4,5-dihydro-1H-imidazol-4-yl)phenoxy)-2-((((Z)-1-(2-aminothiazol-4-yl)-2-(((S)-2,2-dimethyl-4-oxo-1-(sulfooxy)azetidin-3-yl)amino)-2-oxoethylidene)amino)oxy)propanoic acid], for which the “KP_CL6569 MITC95” value in test [1] is 0.3906 µM. Besides, the “PA_CL5701 MITC95” value in test [2] stood at 3.125 µM.
With `C[n+]1cc(-c2ccc(OC[C@](C)(O/N=C(\C(=O)N[C@@H]3C(=O)N(OS(=O)(=O)[O-])C3(C)C)c3csc(N)n3)C(=O)O)cc2F)cn1CCCN` [Example 105, (S)-3-((Z)-2-((((Sn-1-(4-(1-(3-aminopropyl)-2-methyl-1H-pyrazol-2-ium-4-yl)-3-fluorophenoxy)-2-carboxypropan-2-yl)oxy)imino)-2-(2-aminothiazol-4-yl)acetamido)-2,2-dimethyl-4-oxoazetidin-1-yl sulfate], the “KP_CL6569 MITC95” value in test [1] came to 0.3906 µM. The “PA_CL5701 MITC95” value in test [2] stood at 3.125 µM.
The corresponding values for `C[n+]1cc(-c2ccc(OC[C@H](O/N=C(\C(=O)N[C@@H]3C(=O)N(OS(=O)(=O)[O-])C3(C)C)c3csc(N)n3)C(=O)O)cc2)cn1CC1CNC1` [Example 16, (S)-3-((Z)-2-(2-aminothiazol-4-yl)-2-(((S)-2-(4-(1-(azetidin-3-ylmethyl)-2-methyl-1H-pyrazol-2-ium-4-yl)phenoxy)-1-carboxy-ethoxy)imino)acetamido)-2,2-dimethyl-4-oxoazetidin-1-yl sulfate] are 0.3906 µM and 3.125 µM.
Consider `C[n+]1cc(-c2ccc(OC[C@H](O/N=C(\C(=O)N[C@@H]3C(=O)N(OS(=O)(=O)[O-])C3(C)C)c3csc(N)n3)C(=O)O)cc2)ccc1C(=O)NC(CN)CN` [Example 80, (S)-3-((Z)-2-(2-aminothiazol-4-yl)-2-(((S)-1-carboxy-2-(4-(6-((1,3-diaminopropan-2-yl)carbamoyl)-1-methylpyridin-1-ium-3-yl)phenoxy)ethoxy)imino)acetamido)-2,2-dimethyl-4-oxoazetidin-1-yl sulfate], for which the “KP_CL6569 MITC95” value in test [1] stood at 0.1953 µM. Moreover, the “PA_CL5701 MITC95” value in test [2] came out at 3.125 µM.
Turning to `CC1(C)[C@H](NC(=O)/C(=N\O[C@@H](COc2ccc(-c3cnc(NCCN)[n+](CC4CNC4)c3)cc2)C(=O)O)c2csc(N)n2)C(=O)N1OS(=O)(=O)[O-]` [Example 99, (S)-3-((Z)-2-(((S)-2-(4-(2-((2-aminoethyl)amino)-1-(azetidin-3-ylmethyl)pyrimidin-1-ium-5-yl)phenoxy)-1-carboxyethoxy)imino)-2-(2-aminothiazol-4-yl)acetamido)-2,2-dimethyl-4-oxoazetidin-1-yl sulfate], the “KP_CL6569 MITC95” value in test [1] is 0.1953 µM. The “PA_CL5701 MITC95” value in test [2] stood at 3.125 µM.
